Experimental data: PMC5152921, “Evolutionary and Functional Diversification of the Vitamin D Receptor-Lithocholic Acid Partnership” (PLoS ONE, 2016)

Columns and labels:
Human VDR = target: T1, Human VDR (Homo sapiens, UniProt P11473); assay: Mammalian 2-hybrid assay (VDR-coregulator interaction, HepG2); type: cell-based; conditions: 100 μM LCA
T1 sequence (P11473 1-427): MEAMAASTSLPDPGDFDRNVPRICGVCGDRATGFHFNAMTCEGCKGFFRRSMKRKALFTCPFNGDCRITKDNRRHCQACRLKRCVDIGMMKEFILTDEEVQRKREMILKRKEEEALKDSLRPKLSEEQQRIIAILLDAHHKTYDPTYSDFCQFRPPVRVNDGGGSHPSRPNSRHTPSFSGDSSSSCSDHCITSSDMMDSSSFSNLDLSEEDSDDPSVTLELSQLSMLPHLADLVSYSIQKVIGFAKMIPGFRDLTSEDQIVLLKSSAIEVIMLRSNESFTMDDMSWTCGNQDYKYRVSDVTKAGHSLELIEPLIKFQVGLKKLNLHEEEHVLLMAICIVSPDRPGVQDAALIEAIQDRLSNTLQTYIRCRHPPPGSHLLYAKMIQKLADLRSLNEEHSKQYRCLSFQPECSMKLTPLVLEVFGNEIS
Source text: (§1) Prey constructs included full-length VDRs fused to the herpes simplex VP16 activation domain (pVP16-VDR). Bait constructs consisted of either full-length wild-type human RXR (pM-RXRWT), a truncated human RXR mutant (pM-RXRAF2), or the defined NR box of each member of the SRC/p160 family (pM-SRC1_241-386, pM-GRIP1_479-767, or pM-ACTR392-1005) fused to the yeast Gal4 DNA-binding domain. Reporters included the Gal4 luciferase reporter (5xGal4-TATA-Luc) and pRL-CMV as an internal luciferase control.
(§2) HepG2 cells were seeded into 96-well tissue culture plates as described above and transfected with Lipofectamine 2000 the following day. Each well received 33.6 ng pVP16-VDR, 33.6 ng pM-coregulator (where indicated), 126.6 ng 5XGal4-TATA-Luc, and 3 ng pRL-CMV. […] Positive controls were treated with 1,25D3 and vehicle controls were treated with ethanol. Luciferase activity was measured 24 hours post-exposure using the Dual-Glo Luciferase Assay System described above. Raw luciferase data were normalized to the pRL-CMV luciferase control. VDR-coregulator response was normalized to the pVP16-VDR in the absence of bait constructs. Results were analyzed using a two-way ANOVA followed by Bonferroni’s multiple comparisons test in Prism (GraphPad Inc, San Diego, CA). All experiments were replicated 3 times and conducted as groups of 4 replicate wells.

Medaka VDRα [1] = target: T2, Medaka VDRα (Oryzias latipes, UniProt B2CCA0); assay: as above; type: cell-based; conditions: 100 μM LCA
Source text: as §1, §2

Lamprey VDR = target: T3, Lamprey VDR (Petromyzon marinus, UniProt Q7ZZY9); assay: Competitive ligand binding assay ([3H]-1,25D3 displacement); conditions: lysate with VDR and human RXRWT; 4 nM [3H]-1,25D3; 18 hours at 4°C; Cheng-Prusoff; mean ± SEM
T3 sequence (Q7ZZY9 1-406): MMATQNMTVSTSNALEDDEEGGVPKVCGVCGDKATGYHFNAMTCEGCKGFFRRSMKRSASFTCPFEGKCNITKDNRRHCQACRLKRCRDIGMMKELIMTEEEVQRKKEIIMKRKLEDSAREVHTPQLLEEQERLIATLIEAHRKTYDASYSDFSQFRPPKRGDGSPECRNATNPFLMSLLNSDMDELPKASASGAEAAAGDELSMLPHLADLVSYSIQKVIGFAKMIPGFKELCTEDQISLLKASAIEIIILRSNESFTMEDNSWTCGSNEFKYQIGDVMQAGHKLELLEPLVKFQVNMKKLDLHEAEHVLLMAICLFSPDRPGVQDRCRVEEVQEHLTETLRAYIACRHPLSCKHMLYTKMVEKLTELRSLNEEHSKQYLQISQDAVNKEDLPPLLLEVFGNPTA
T3 sequence (P19793 1-462 partner): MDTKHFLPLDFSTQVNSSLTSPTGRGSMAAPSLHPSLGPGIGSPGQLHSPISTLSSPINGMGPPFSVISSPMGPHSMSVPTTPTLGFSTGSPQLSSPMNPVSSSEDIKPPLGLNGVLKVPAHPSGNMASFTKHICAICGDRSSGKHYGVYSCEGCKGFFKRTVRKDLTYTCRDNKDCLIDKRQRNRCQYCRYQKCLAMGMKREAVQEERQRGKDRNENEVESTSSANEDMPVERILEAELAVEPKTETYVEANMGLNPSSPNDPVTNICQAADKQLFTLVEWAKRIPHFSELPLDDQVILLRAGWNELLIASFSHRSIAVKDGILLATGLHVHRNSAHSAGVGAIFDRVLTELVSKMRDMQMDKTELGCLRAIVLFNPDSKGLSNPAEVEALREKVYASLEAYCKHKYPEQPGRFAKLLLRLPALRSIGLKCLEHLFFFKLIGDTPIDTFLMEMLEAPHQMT
Protocol: (§3) Recombinant VDR and human RXRWT lysates were prepared from transfected COS7 cells (American Type Culture Collection #CRL-1651) as described in detail previously. Lysates were diluted 10-fold in ice-cold assay buffer (10 mM Tris HCl, 150 mM KCl, 1 mM EDTA, 0.3 mM ZnCl2, 5 mM DTT, and 1x protease inhibitor cocktail (100 μM AEBSF, 80 nM aprotinin, 5 μM bestatin, 1.5 μM E-64 (for cysteine proteases), 2 μM leupeptin, 1 μM pepstatin A), pH 7.5). […] Reactions were shaken to mix and incubated for 18 hours at 4°C. Bound and free ligand were separated with the addition of 80 μL of ice-cold separation buffer (2.5% (w/v) activated charcoal, 0.5% (w/v) dextran, 100 mM Na2HPO4, 39 mM NaH2PO4, 150 mM NaCl, 15 mM NaN3, 10% gelatin, pH 7.0), and incubated at 4°C for 15 minutes with shaking every 5 minutes. Reactions were centrifuged at 5,000 x g for 5 minutes at 4°C, and 200 μL of the supernatant containing the VDR-bound ligands was removed for scintillation counting.
(§4) Total binding was determined using lysate from cells transfected with VDR, and nonspecific binding was determined using lysate from cells transfected with the empty pSG5 vector. Specific binding was determined by subtracting non-specific binding counts from the total binding counts.

Medaka VDRα [2] = target: T2, Medaka VDRα; assay: as above; conditions: lysate with VDR and human RXRWT; 4 nM [3H]-1,25D3; 18 hours at 4°C; Cheng-Prusoff; mean ± SEM
Protocol: as §3, §4

T2 sequence (B2CCA0 entry or part of it, one chain of several): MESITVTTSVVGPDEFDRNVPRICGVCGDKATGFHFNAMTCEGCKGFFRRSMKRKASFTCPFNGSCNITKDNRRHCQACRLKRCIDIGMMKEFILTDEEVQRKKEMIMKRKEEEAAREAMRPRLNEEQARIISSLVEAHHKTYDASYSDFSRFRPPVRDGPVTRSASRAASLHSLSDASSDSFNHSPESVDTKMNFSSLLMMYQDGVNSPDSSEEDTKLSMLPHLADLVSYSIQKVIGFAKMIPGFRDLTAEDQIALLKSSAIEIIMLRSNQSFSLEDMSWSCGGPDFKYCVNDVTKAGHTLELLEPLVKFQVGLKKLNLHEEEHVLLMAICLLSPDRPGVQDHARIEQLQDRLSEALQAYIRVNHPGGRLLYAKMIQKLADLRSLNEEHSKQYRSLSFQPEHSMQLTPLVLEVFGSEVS

For C[C@H](CCC(=O)O)[C@H]1CC[C@H]2[C@@H]3CC[C@@H]4C[C@H](O)CC[C@]4(C)[C@H]3CC[C@]12C [LCA, 5β-cholanic acid-3α-ol], the VDR-SRC1 interaction (Human VDR; absence of cotransfected RXRWT) was “successfully recruited SRC1”, the “VDR-RXRWT interaction (heterodimerization)” value (Human VDR; bait human RXRWT) was “Robust and significant VDR-RXRWT interactions” and the VDR-SRC1 interaction (Human VDR; cotransfection of RXRWT) was “strong VDR-SRC1 interactions”. For the same compound, the “VDR-RXRWT interaction (heterodimerization)” value (Medaka VDRα [1]; bait human RXRWT) was “Robust and significant VDR-RXRWT interactions”, the VDR-SRC1 interaction (Medaka VDRα [1]; cotransfection of RXRWT) was “strong VDR-SRC1 interactions” and the Ki (Lamprey VDR) was 8.7 µM. The Ki (Medaka VDRα [2]) was 6.5 ± 1.9 µM.
